In test [1] the target is Delta-type opioid receptor (Rattus norvegicus, UniProt P33533).
Test [2] concerns the target Kappa-type opioid receptor (Rattus norvegicus, UniProt P34975).
Another test addresses Mu-type opioid receptor (Rattus norvegicus, UniProt P33535).

The structures appear in SMILES notation.

Sequence of Mu-type opioid receptor (P33535 whole entry): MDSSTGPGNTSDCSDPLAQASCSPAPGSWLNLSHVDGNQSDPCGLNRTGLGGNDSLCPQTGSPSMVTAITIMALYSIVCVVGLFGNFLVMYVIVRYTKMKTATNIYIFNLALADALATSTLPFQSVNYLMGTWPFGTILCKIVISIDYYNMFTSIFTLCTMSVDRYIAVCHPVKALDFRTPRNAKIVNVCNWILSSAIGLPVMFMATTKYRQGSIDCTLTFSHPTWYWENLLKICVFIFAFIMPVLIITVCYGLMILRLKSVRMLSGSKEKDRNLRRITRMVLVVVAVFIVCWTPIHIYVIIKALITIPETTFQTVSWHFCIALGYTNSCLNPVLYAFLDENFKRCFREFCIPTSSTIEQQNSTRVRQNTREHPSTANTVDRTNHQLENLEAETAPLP
Sequence of Kappa-type opioid receptor (P34975 whole entry): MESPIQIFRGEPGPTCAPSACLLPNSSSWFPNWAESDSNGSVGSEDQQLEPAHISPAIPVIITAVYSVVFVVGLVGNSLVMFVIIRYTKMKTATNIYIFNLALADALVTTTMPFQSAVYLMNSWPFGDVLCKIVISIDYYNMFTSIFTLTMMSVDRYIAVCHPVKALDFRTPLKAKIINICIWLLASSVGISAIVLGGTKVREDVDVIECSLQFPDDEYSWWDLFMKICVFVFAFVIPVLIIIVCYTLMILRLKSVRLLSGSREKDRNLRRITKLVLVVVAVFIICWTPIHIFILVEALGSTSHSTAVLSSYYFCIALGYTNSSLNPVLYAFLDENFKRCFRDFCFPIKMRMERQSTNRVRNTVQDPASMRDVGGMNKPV
Sequence of Delta-type opioid receptor (P33533 whole entry): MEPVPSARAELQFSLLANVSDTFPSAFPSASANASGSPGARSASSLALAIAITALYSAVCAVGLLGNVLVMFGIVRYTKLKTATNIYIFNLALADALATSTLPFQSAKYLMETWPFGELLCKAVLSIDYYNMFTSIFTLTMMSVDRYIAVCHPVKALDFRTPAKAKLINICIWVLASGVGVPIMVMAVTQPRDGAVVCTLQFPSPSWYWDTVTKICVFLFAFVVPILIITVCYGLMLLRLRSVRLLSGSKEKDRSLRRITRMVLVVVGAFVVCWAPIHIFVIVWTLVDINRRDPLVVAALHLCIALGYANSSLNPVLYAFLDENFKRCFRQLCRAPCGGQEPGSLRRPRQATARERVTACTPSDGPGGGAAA

With `COC12CC[C@H](N[C@H](C)C(=O)O)[C@@H]3Oc4c(O)ccc5c4[C@@]31CCN(C)C2C5` (stereo partly drawn) [(2S)-2-[4,5alpha-epoxy-3-hydroxy-14beta-methoxy-17-methylmorphinan-6alpha-yl)amino]propanoic acid bis(tetrafluoroborate)], the Ki (as a rule, a dissociation constant, usually derived from enzyme kinetics or from competition with a known ligand) in test [1] came out at 26.9 nM; in test [2], 142 nM.

For the compound `COC12CC[C@@H](N[C@H](C)C(=O)O)[C@@H]3Oc4c(O)ccc5c4[C@@]31CCN(C)C2C5` (stereo partly drawn) [(2S)-2-[4,5alpha-epoxy-3-hydroxy-14beta-methoxy-17-methylmorphinan-6beta-yl)amino]propanoic acid bis(tetrafluoroborate)], the Ki in test [1] is 7.71 nM; in test [2], 63.7 nM.

Regarding `COC12CC[C@H](N[C@H](Cc3ccccc3)C(=O)O)[C@@H]3Oc4c(O)ccc5c4[C@@]31CCN(C)C2C5` (stereo partly drawn) [(2S)-2-[(4,5alpha-epoxy-3-hydroxy-14beta-methoxy-17-methylmorphinan-6alpha-yl)amino]-3-phenylpropanoic acid bis(tetrafluroborate)], the Ki at Mu-type opioid receptor amounted to 0.95 nM; in test [2], 28.5 nM.

Regarding `COC12CC[C@@H](N[C@H](Cc3ccccc3)C(=O)O)[C@@H]3Oc4c(O)ccc5c4[C@@]31CCN(C)C2C5` (stereo partly drawn) [(2S)-2-[(4,5alpha-epoxy-3-hydroxy-14beta-methoxy-17-methylmorphinan-6beta-yl)amino]-3-phenylpropanoic acid bis(tetrafluoroborate)], the Ki at Mu-type opioid receptor was 2.58 nM; in test [1] it was 1.03 nM; in test [2] it was 151 nM.

Take `CCO[C@@]12Cc3c([nH]c4ccccc34)[C@]3(C)Oc4c(O)ccc5c4[C@@]31CCN(CC1CC1)C2C5` [HS-378]: the Ki at Mu-type opioid receptor is 340 nM; in test [2], 134 nM.

The values above are taken from BindingDB's records for doi:10.1016/j.ejphar.2003.10.049 (University of Innsbruck, 2004).
